By Km is commonly meant the substrate concentration at which the rate is half of its maximum. The Vmax is the rate approached at saturating substrate. For orientation: inhibition means the share of the control response that was lost under treatment. High values mean strong suppression, low ones little suppression. As usually defined, the Ki is the equilibrium dissociation constant of an inhibitor or competing ligand from its target. A higher Ki goes with a looser hold on the target. As a reminder, the IC50 is the concentration that gives 50% inhibition. A higher IC50 goes with weaker potency in that assay.

Values joined by “and” are separate entries in the source; they are usually repeats but may differ in a detail not shown here. Equal values may be shown once. Read-outs that look alike come from different tables or passages of the source.

The text below walks through data of publication PMC6270726 (Molecules, 2014).

Assay [1] addresses T1, SaSDH (Staphylococcus aureus, UniProt Q6GGA5).
T1 construct: 6His-tag (N); made in house; host or cells: E. coli BL21(DE3)pLysS
T1 sequence (Q6GGA5 1-268): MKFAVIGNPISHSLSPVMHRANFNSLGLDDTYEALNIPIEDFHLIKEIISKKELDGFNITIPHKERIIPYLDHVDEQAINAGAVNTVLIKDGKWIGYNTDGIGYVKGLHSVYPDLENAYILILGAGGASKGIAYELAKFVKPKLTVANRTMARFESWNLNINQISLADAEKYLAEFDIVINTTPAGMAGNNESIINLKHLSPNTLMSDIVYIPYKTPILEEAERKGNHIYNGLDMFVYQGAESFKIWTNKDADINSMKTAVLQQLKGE
The experiment in a line: SaSDH kinetic parameters for substrates. Type of assay: biochemical, methicillin-resistant S. aureus. Conditions: substrate of SaSDH; for Km: 25 °C, random bi-bi fit; for Vmax: saturating levels of both substrates; for Kd: read-out: Kia (dissociation constant). How it is done: Data were fitted to several models of bi-substrate reactions, all of which were analyzed using SigmaPlot Enzyme Kinetics Module v1.3. […] These were used to derive the turnover number (Kcat) and Kcat/Km.
(§1) Enzyme activity was measured spectrophotometrically at 25 °C at 340 nm, following NADPH generation (ε = 6.19 × 10^3 M^−1 cm^−1). The reaction mixture contained buffer A plus 1 mM SHK, 1 mM NADP^+, and 50 ng of SaSDH.
The data were linearized by the double-reciprocal transformation of Lineweaver and Burk. […] The inversion of the data matrix allowed the determination of the dissociation constant for NADP^+.

The target in assay [2] is T1, SaSDH. The experiment in a line: SaSDH inhibition assays (single concentration and inhibition kinetics). Type of assay: biochemical. Conditions: for inhibition at 200 µM: inhibition of SaSDH activity, compound at 200 µM; for IC50: i0.5 at 400 μM of substrate, 400 μM, 50% inhibition concentration; for Pattern (inhibition mechanism): Cornish-Bowden plot. How it is done:
Once the model was built, a rigid body docking procedure for virtual screening with a library of small molecules was performed. Because the enzyme is absent in humans, we selected the substrate (SHK) binding site as the target for virtual screening (Figure 3A). From the one thousand small molecules studied, a database of 38,355 poses was generated. The one hundred molecules with the highest binding energies were selected, and the capacities of these molecules to inhibit SaSDH were assessed. Inhibition assays using a concentration of 200 µM of the latter molecules were performed.
In order to study the type of inhibition of compounds on SaSDH, pharmacological and kinetic parameters (i0.5, Kic and Kiu) were determined at various concentrations of these compounds, using SHK and NADP^+ respectively, as substrates. In Figure 4, the plots of reciprocal rate multiplied by the substrate concentrations (S/v) versus inhibitor concentration in the presence of SHK and NADP^+ are shown. The intercept of the extrapolated line on the [i] axis, that corresponds to each compound concentration, is ‒i0.5. This provided a single and accurate way of estimating i0.5, which is important if it is to be used to calculate the inhibition constant.
as §1
The data were fitted to equations for competitive, uncompetitive, non-competitive and mixed inhibition, respectively, using the kinetic module of SigmaPlot program v12.3. All experiments were repeated at least twice.
The 50% inhibition concentrations (i0.5) of compounds against SaSDH were determined and analyzed by fitting to [Equation (2)]. The inhibition mechanism and inhibition constant (Kic and Kiu) were studied by fitting the inhibition data to [Equation (3)]: [drawing 12] (2) [drawing 13] (3)
Kic is the inhibition constant derived from the intercepts, whereas Kiu is the constant derived from the slope of 1/i0.5 vs v/V plots.

[3] abbreviates: Kic, substrate shikimate, inhibitor binding to the substrate site.
Setting [4] is: Kiu, substrate NADP^+, inhibitor binding to enzyme-substrate complex.

`NC(=O)c1ccc[n+]([C@@H]2O[C@H](COP(=O)([O-])OP(=O)(O)OC[C@H]3O[C@@H](n4cnc5c(N)ncnc54)[C@H](OP(=O)(O)O)[C@@H]3O)[C@@H](O)[C@H]2O)c1` [NADP^+]: on SaSDH [1], the Kcat was 146 s⁻¹ and 146.16 s⁻¹; the Km worked out at 42.6 ± 9.9 µM; the Vmax was 251 µmol/min/mg and 251.41 ± 7.2 µmol/min/mg; the Kd was 21 µM.

As for `O=C(O)C1=C[C@@H](O)[C@@H](O)[C@H](O)C1` [Shikimate, shikimate], on SaSDH [1], the Km turned out to be 37.5 ± 3.7 µM, the Vmax turned out to be 233.6 ± 1.5 µmol/min/mg and the Kd stood at 21.2 µM. Also, at SaSDH [1] (listed as SHK), the Vmax was found to be 233 µmol/min/mg and the Kd was found to be 21.2 µM.

For `COC(=O)c1sc2ccccc2c1O` [compound 62], on SaSDH [2], the inhibition at 200 µM stood at 33%.

As for `O=C(O)c1ccc(-c2cccs2)s1` [compound 238, 2,2'-bithiophene-5-carboxylic acid], the Ki at SaSDH [2] (setting [3]) came to 9.53 µM; on SaSDH [2] (setting [4]) it was 48.3 µM. For the same molecule, the IC50 was found to be 108 µM against SaSDH [2] (substrate NADP^+) and 123 µM against SaSDH [2] (substrate shikimate). On SaSDH [2], this molecule registered an inhibition at 200 µM of 87%. Besides, the figures for the “Pattern (inhibition mechanism)” value on SaSDH [2] (with respect to NADP^+) and on SaSDH [2] (with respect to shikimate) were “Uncompetitive” and “Competitive”, respectively.

As for `OCC1COc2ccccc2C1` (stereo not drawn) [compound 291], testing at 200 µM on SaSDH [2] gave an inhibition of 31%.

In the case of `O=C(O)c1ccc(CN2CCOCC2)cc1` [compound 306], testing at 200 µM on SaSDH [2] gave an inhibition of 31%.

In turn, `CN(C)CCOc1ccccc1CO` [compound 463] registered an inhibition at 200 µM at SaSDH [2] of 45%.

Turning to `CN(CCO)c1cc(C(F)(F)F)nc2ccccc12` [compound 626], the inhibition at 200 µM at SaSDH [2] was 49%.

In the case of `CCCCC#Cc1ccc(C(=O)O)o1` [compound 637], on SaSDH [2], the inhibition at 200 µM was found to be 29%.

The molecule `O=C(O)c1csc(-c2ccc(C(F)(F)F)cc2)n1` [compound 692] showed an inhibition at 200 µM at SaSDH [2] of 31%.

As for `Cc1c(O)ccc2c1OC(C)(C)CC2=O` [compound 766, 7-hydroxy-2,2,8-trimethyl-2,3-dihydro-4H-chromen-4-one], the Ki was 19.7 µM and 19.8 µM at SaSDH [2] (setting [3]); 11.3 µM at SaSDH [2] (setting [4]). Further, the half-inhibitory concentration (IC50) came out at 564 µM against SaSDH [2] (substrate NADP^+) and 343 µM at SaSDH [2] (substrate shikimate). Also, 200 µM produced 87% inhibition against SaSDH [2]. The “Pattern (inhibition mechanism)” value is recorded as “Uncompetitive” at SaSDH [2] (with respect to NADP^+) and “Competitive” at SaSDH [2] (with respect to shikimate).

As to `O=C1COc2cc(O)ccc21` [compound 894, 6-hydroxy-2,3-dihydrobenzo[b]furan-3-one], the Ki on SaSDH [2] (Kic, substrate NADP^+, inhibitor binding to the substrate site) is 901 µM; at SaSDH [2] (setting [3]), 58.3 µM; at SaSDH [2] (setting [4]), 5.2 µM; on SaSDH [2] (Kiu, substrate shikimate, inhibitor binding to enzyme-substrate complex), 1470 µM. The IC50 against SaSDH [2] (substrate NADP^+) was determined as 614 µM; at SaSDH [2] (substrate shikimate) it was 143 µM. This molecule showed an inhibition at 200 µM against SaSDH [2] of 99%. Moreover, the “Pattern (inhibition mechanism)” value at SaSDH [2] (with respect to NADP^+) is listed as “Mixed-uncompetitive”; on SaSDH [2] (with respect to shikimate), “Mixed-competitive”.
